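Where inhibition never reached the appropriate level, the endpoint shown equals the highest concentration tested. Otherwise, values were interpolated linearly from a five-concentration, 48-hour dose response in 96-well plates. The concentration for 50% growth inhibition is given as GI50.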 Calls of active or inactive are those of the source. No stated cut-off is given here; in the data, active = GI50 up to about 1.1 µM and inactive = higher.
How the values were obtained:
Experiment in all cases: NCI tumour cell line growth inhibition, 48 h
786-0 = tested on: 786-0
A498 = tested on: A498
A549 = tested on: A549
ACHN = tested on: ACHN
CAKI-1 = tested on: CAKI-1
CCRF-CEM = tested on: CCRF-CEM
COLO 205 = tested on: COLO 205
DLD-1 = tested on: DLD-1
DMS-114 = tested on: DMS-114
DMS-273 = tested on: DMS-273
EKVX = tested on: EKVX
HCC 2998 = tested on: HCC 2998
HCT-116 = tested on: HCT-116
HCT-15 = tested on: HCT-15
HL-60 = tested on: HL-60
HOP-62 = tested on: HOP-62
HT-29 = tested on: HT-29
IGROV-1 = tested on: IGROV-1
K562 = tested on: K562
KM-20L2 = tested on: KM-20L2
KM12 = tested on: KM12
LOX IMVI = tested on: LOX IMVI
LXFL 529 = tested on: LXFL 529
M14 = tested on: M14
M19-MEL = tested on: M19-MEL
MOLT-4 = tested on: MOLT-4
Malme-3M = tested on: Malme-3M
NCI-H226 = tested on: NCI-H226
NCI-H23 = tested on: NCI-H23
NCI-H460 = tested on: NCI-H460
NCI-H522 = tested on: NCI-H522
OVCAR-3 = tested on: OVCAR-3
OVCAR-5 = tested on: OVCAR-5
OVCAR-8 = tested on: OVCAR-8
RPMI-8226 = tested on: RPMI-8226
RXF 631 = tested on: RXF 631
SF-268 = tested on: SF-268
SF-295 = tested on: SF-295
SF-539 = tested on: SF-539
SK-MEL-28 = tested on: SK-MEL-28
SK-MEL-2 = tested on: SK-MEL-2
SK-MEL-5 = tested on: SK-MEL-5
SK-OV-3 = tested on: SK-OV-3
SN12C = tested on: SN12C
SNB-19 = tested on: SNB-19
SNB-75 = tested on: SNB-75
SNB-78 = tested on: SNB-78
SR = tested on: SR
SW-620 = tested on: SW-620
TK-10 = tested on: TK-10
U-251 = tested on: U-251
UACC-257 = tested on: UACC-257
UACC-62 = tested on: UACC-62
XF498 = tested on: XF498
HOP-18 = tested on: HOP-18
HOP-92 = tested on: HOP-92
OVCAR-4 = tested on: OVCAR-4
RXF 393 = tested on: RXF 393
UO-31 = tested on: UO-31

c1ccc2c(c1)CCc1c(-c3ccncc3)n[nH]c1-2
GI50 (786-0): 37.8 µM (inactive) | GI50 (A498): 25.9 µM (inactive) | GI50 (A549): 30.8 µM (inactive) | GI50 (ACHN): 26.5 µM (inactive) | GI50 (CAKI-1): 19.8 µM (inactive) | GI50 (CCRF-CEM): 14.2 µM (inactive) | GI50 (COLO 205): 25.7 µM (inactive) | GI50 (DLD-1): 41.9 µM (inactive) | GI50 (DMS-114): 17.2 µM (inactive) | GI50 (DMS-273): 22.9 µM (inactive) | GI50 (EKVX): 6.14 µM (inactive) | GI50 (HCC 2998): 33.1 µM (inactive) | GI50 (HCT-116): 22.2 µM (inactive) | GI50 (HCT-15): 32.1 µM | GI50 (HL-60): 34.3 µM (inactive) | GI50 (HOP-62): 28.4 µM (inactive) | GI50 (HT-29): 44.6 µM (inactive) | GI50 (IGROV-1): 26.4 µM (inactive) | GI50 (K562): 48.2 µM (inactive) | GI50 (KM-20L2): 23.6 µM (inactive) | GI50 (KM12): 21.8 µM (inactive) | GI50 (LOX IMVI): 23.3 µM (inactive) | GI50 (LXFL 529): 23.7 µM (inactive) | GI50 (M14): 22.8 µM (inactive) | GI50 (M19-MEL): 21.4 µM (inactive) | GI50 (MOLT-4): 36 µM (inactive) | GI50 (Malme-3M): 33.5 µM (inactive) | GI50 (NCI-H226): 23 µM (inactive) | GI50 (NCI-H23): 19.4 µM (inactive) | GI50 (NCI-H460): 32.1 µM (inactive) | GI50 (NCI-H522): > 10 µM (inactive) | GI50 (OVCAR-3): 16.7 µM (inactive) | GI50 (OVCAR-5): 32.7 µM (inactive) | GI50 (OVCAR-8): 29.4 µM (inactive) | GI50 (RPMI-8226): 26.5 µM (inactive) | GI50 (RXF 631): > 10 µM (inactive) | GI50 (SF-268): 28.8 µM (inactive) | GI50 (SF-295): 45.7 µM (inactive) | GI50 (SF-539): 24.8 µM (inactive) | GI50 (SK-MEL-28): 23.8 µM (inactive) | GI50 (SK-MEL-2): 17.9 µM (inactive) | GI50 (SK-MEL-5): 18 µM (inactive) | GI50 (SK-OV-3): 33.4 µM (inactive) | GI50 (SN12C): 43.5 µM (inactive) | GI50 (SNB-19): 27.7 µM (inactive) | GI50 (SNB-75): 26.3 µM (inactive) | GI50 (SNB-78): 29.6 µM (inactive) | GI50 (SR): 27.8 µM (inactive) | GI50 (SW-620): 39.7 µM (inactive) | GI50 (TK-10): 29.8 µM (inactive) | GI50 (U-251): 13.6 µM (inactive) | GI50 (UACC-257): 25.6 µM (inactive) | GI50 (UACC-62): 16.4 µM (inactive) | GI50 (XF498): 0.583 µM (active)

O=C(O)C1=C(C(=O)Nc2ccccc2)C2C=CC1C2 (stereo not drawn)
GI50 (786-0): > 100 µM (inactive) | GI50 (A498): > 100 µM (inactive) | GI50 (A549): > 100 µM (inactive) | GI50 (ACHN): > 100 µM (inactive) | GI50 (CCRF-CEM): > 100 µM (inactive) | GI50 (COLO 205): > 100 µM (inactive) | GI50 (DLD-1): > 100 µM (inactive) | GI50 (DMS-114): > 100 µM (inactive) | GI50 (DMS-273): > 100 µM (inactive) | GI50 (EKVX): > 100 µM (inactive) | GI50 (HCC 2998): > 100 µM (inactive) | GI50 (HCT-116): > 100 µM (inactive) | GI50 (HCT-15): > 100 µM | GI50 (HL-60): > 100 µM (inactive) | GI50 (HOP-18): > 100 µM (inactive) | GI50 (HOP-62): > 100 µM (inactive) | GI50 (HOP-92): > 100 µM (inactive) | GI50 (HT-29): > 100 µM (inactive) | GI50 (IGROV-1): > 100 µM (inactive) | GI50 (K562): > 100 µM (inactive) | GI50 (KM-20L2): > 100 µM (inactive) | GI50 (KM12): > 100 µM (inactive) | GI50 (LOX IMVI): > 100 µM (inactive) | GI50 (LXFL 529): > 100 µM (inactive) | GI50 (M14): > 100 µM (inactive) | GI50 (M19-MEL): > 100 µM (inactive) | GI50 (MOLT-4): > 100 µM (inactive) | GI50 (Malme-3M): > 100 µM (inactive) | GI50 (NCI-H23): > 100 µM (inactive) | GI50 (NCI-H460): > 100 µM (inactive) | GI50 (OVCAR-3): > 100 µM (inactive) | GI50 (OVCAR-4): > 100 µM (inactive) | GI50 (OVCAR-5): > 100 µM (inactive) | GI50 (OVCAR-8): > 100 µM (inactive) | GI50 (RPMI-8226): > 100 µM (inactive) | GI50 (RXF 393): > 100 µM (inactive) | GI50 (SF-268): > 100 µM (inactive) | GI50 (SF-295): > 100 µM (inactive) | GI50 (SF-539): > 100 µM (inactive) | GI50 (SK-MEL-28): > 100 µM (inactive) | GI50 (SK-MEL-5): > 100 µM (inactive) | GI50 (SK-OV-3): > 100 µM (inactive) | GI50 (SN12C): > 100 µM (inactive) | GI50 (SNB-19): > 100 µM (inactive) | GI50 (SNB-75): > 100 µM (inactive) | GI50 (SNB-78): > 100 µM (inactive) | GI50 (SR): > 100 µM (inactive) | GI50 (SW-620): > 100 µM (inactive) | GI50 (TK-10): > 100 µM (inactive) | GI50 (U-251): > 100 µM (inactive) | GI50 (UACC-257): > 100 µM (inactive) | GI50 (UACC-62): > 100 µM (inactive) | GI50 (UO-31): > 100 µM (inactive) | GI50 (XF498): > 100 µM (inactive)
